According to article PMC3541548 (Bioorganic & medicinal chemistry letters, 2012):
Read-outs that look alike come from different tables or passages of the source.

Columns and labels:
Human sEH = molecular target: T1, Human sEH (Homo sapiens, UniProt P34913); type: biochemical; settings: for fold lower potency against sEH: compared to 2-naphthalene analog 7-38
T1 sequence (P34913 1-555): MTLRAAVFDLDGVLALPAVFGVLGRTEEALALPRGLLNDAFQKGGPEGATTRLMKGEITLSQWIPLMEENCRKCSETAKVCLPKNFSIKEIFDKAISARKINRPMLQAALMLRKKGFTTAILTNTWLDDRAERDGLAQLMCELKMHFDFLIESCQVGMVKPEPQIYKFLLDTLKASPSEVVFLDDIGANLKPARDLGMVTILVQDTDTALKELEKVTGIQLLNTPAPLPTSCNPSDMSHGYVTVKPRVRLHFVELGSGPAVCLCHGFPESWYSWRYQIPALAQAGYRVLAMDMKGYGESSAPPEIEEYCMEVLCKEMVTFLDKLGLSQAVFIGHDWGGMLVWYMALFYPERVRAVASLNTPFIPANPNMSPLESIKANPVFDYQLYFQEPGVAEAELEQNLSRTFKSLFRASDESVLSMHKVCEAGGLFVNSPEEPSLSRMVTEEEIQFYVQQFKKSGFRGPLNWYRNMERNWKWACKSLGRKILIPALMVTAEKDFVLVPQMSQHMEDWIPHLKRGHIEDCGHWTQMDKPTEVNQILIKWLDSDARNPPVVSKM

in vitro = settings: human, microsomes
[1] = compared to phenyl compound 7-12

Structure (SMILES): Cc1ccc(S(=O)(=O)N2CCC(C(=O)Nc3ccc(Cl)c(C(F)(F)F)c3)CC2)c(C)c1 [Compound 7-41]
- fold lower potency against sEH (Human sEH): 50 fold

Structure (SMILES): Cc1ccc(S(=O)(=O)N2CCC(C(=O)Nc3ccc(OC(F)(F)F)cc3)CC2)c(C)c1 [Compound 7-12]
- fold drop in potency against the human sEH (Human sEH; compared to cycloalkyl lead compound 2): 15 fold

Structure (SMILES): Cc1ccc(S(=O)(=O)N2CCC(C(=O)Nc3ccc(Br)cc3)CC2)c(C)c1 [Compound 7-40]
- fold lower potency against sEH (Human sEH): 30 fold

Structure (SMILES): Cc1ccc(S(=O)(=O)N2CCC(C(=O)Nc3ccc([N+](=O)[O-])cc3)CC2)c(C)c1 [Compound 7-35]
- fold increase in potency (lower IC50) (Human sEH; [1]): 2 fold

Structure (SMILES): Cc1ccc(S(=O)(=O)N2CCC(C(=O)Nc3ccc(S(=O)(=O)C(F)(F)F)cc3)CC2)c(C)c1 [Compound 7-38]
- CLint scaled at 1.5 h (in vitro): 35 mL/min/kg

Structure (SMILES): Cc1ccc(S(=O)(=O)N2CCC(C(=O)Nc3ccc(Cl)c(Cl)c3)CC2)c(C)c1 [Compound 7-19]
- fold decrease in potency (Human sEH; [1]): 2 fold

Structure (SMILES): Cc1ccc(S(=O)(=O)N2CCC(C(=O)NC34CC5CC(CC(C5)C3)C4)CC2)c(C)c1 [Compound 7-6]
- CLint scaled at 1.5 h (in vitro): 90 mL/min/kg

Structure (SMILES): Cc1ccc(S(=O)(=O)N2CCC(C(=O)Nc3ccc(C(C)C)cc3)CC2)c(C)c1 [Compound 7-37]
- fold increase in potency (lower IC50) (Human sEH): 3 fold
- CLint scaled at 1.5 h (in vitro): 50 mL/min/kg

Structure (SMILES): Cc1ccc(S(=O)(=O)N2CCC(C(=O)Nc3cccc(C(F)(F)F)c3)CC2)c(C)c1 [Compound 7-16]
- fold decrease in potency (Human sEH; [1]): 30 fold

Structure (SMILES): Cc1ccc(S(=O)(=O)N2CCC(C(=O)Nc3ccc4ccccc4c3)CC2)c(C)c1 [Compound 7-42]
- fold lower potency against sEH (Human sEH): 180 fold
- CLint scaled at 1.5 h (in vitro): 140 mL/min/kg

Structure (SMILES): Cc1ccc(S(=O)(=O)N2CCC(C(=O)Nc3ccc4cc(C(=O)O)ccc4c3)CC2)c(C)c1 [Compound 7-45]
- CLint scaled at 1.5 h (in vitro): 35 mL/min/kg

Structure (SMILES): Cc1ccc(S(=O)(=O)N2CCC(C(=O)Nc3ccc(F)cc3)CC2)c(C)c1 [Compound 7-39]
- fold lower potency against sEH (Human sEH): 5 fold

Structure (SMILES): Cc1ccc(S(=O)(=O)N2CCC(C(=O)NC3CCCC3)CC2)c(C)c1 [Compound 7-3]
- CLint scaled at 1.5 h (in vitro): 90 mL/min/kg

Structure (SMILES): COC(=O)c1ccc(NC(=O)C2CCN(S(=O)(=O)c3ccc(C)cc3C)CC2)cc1 [Compound 7-11]
- CLint scaled at 1.5 h (in vitro): 340 mL/min/kg

Structure (SMILES): Cc1ccc(S(=O)(=O)N2CCC(C(=O)NC3CC3)CC2)c(C)c1 [Compound 7-24]
- in vitro metabolic stability in human liver microsomes (in words): intermediate metabolic profiles
- CLint scaled at 1.5 h (in vitro): 7 mL/min/kg

Structure (SMILES): Cc1ccc(S(=O)(=O)N2CCC(C(=O)Nc3ccccc3O)CC2)c(C)c1 [Compound 7-9]
- CLint scaled at 1.5 h (in vitro): 520 mL/min/kg

Structure (SMILES): Cc1ccc(S(=O)(=O)N2CCC(C(=O)Nc3ccc4c(c3)OCO4)CC2)c(C)c1 [Compound 7-23]
- fold increase in potency (lower IC50) (Human sEH; [1]): 4 fold
- in vitro metabolic stability in human liver microsomes (in words): intermediate metabolic profiles
- CLint scaled at 1.5 h (in vitro): 28 mL/min/kg

Structure (SMILES): Cc1ccc(S(=O)(=O)N2CCC(C(=O)Nc3cccc4cccnc34)CC2)c(C)c1 [Compound 7-20]
- CLint scaled at 1.5 h (in vitro): 120 mL/min/kg

Structure (SMILES): Cc1ccc(S(=O)(=O)N2CCC(C(=O)Nc3cccc4cnccc34)CC2)c(C)c1 [Compound 7-44]
- fold lower potency against sEH (Human sEH): 15 fold
- CLint scaled at 1.5 h (in vitro): 5.6 mL/min/kg

Structure (SMILES): Cc1ccc(S(=O)(=O)N2CCC(C(=O)Nc3ccc(N4CCOCC4)cc3)CC2)c(C)c1 [Compound 7-14]
- fold decrease in potency (Human sEH; [1]): 10 fold
